According to patent publication US9340590B2 (priority 2011, dated 2016):
pIC50: −log10 of the molar value. Like-named read-outs stand apart in the source and are kept apart here. Positions of bridges follow the written chain, without caps; N, C: chain ends. Non-standard residues stand in square brackets, D forms with d. Residues, ends and D or L forms follow the SMILES beside them. Phe(4-COOH) = N[C@@H](Cc1ccc(C(=O)O)cc1)C(=O)O; Lys(Me2) = CN(C)CCCC[C@H](N)C(=O)O; 2Pal = N[C@@H](Cc1ccccn1)C(=O)O; Phg = N[C@H](C(=O)O)c1ccccc1

Key:
Assay in all cases: cell-based
[1] = target: hNav1.7 (Homo sapiens, UniProt Q15858); assay type: cell-based
[2] = target: hNav1.5 (Homo sapiens, UniProt Q14524); conditions: IonWorks Quattro, Use; read-out: IWQ Use Nav1.5
[3] = target: hNav1.3 (Homo sapiens, UniProt Q9NY46); conditions: IonWorks Quattro, Use; read-out: IWQ Use Nav1.3
[4] = IonWorks Quattro, Use, read-out: IWQ Use Nav1.7

Sequence of hNav1.7 (Q15858 whole entry, looked up): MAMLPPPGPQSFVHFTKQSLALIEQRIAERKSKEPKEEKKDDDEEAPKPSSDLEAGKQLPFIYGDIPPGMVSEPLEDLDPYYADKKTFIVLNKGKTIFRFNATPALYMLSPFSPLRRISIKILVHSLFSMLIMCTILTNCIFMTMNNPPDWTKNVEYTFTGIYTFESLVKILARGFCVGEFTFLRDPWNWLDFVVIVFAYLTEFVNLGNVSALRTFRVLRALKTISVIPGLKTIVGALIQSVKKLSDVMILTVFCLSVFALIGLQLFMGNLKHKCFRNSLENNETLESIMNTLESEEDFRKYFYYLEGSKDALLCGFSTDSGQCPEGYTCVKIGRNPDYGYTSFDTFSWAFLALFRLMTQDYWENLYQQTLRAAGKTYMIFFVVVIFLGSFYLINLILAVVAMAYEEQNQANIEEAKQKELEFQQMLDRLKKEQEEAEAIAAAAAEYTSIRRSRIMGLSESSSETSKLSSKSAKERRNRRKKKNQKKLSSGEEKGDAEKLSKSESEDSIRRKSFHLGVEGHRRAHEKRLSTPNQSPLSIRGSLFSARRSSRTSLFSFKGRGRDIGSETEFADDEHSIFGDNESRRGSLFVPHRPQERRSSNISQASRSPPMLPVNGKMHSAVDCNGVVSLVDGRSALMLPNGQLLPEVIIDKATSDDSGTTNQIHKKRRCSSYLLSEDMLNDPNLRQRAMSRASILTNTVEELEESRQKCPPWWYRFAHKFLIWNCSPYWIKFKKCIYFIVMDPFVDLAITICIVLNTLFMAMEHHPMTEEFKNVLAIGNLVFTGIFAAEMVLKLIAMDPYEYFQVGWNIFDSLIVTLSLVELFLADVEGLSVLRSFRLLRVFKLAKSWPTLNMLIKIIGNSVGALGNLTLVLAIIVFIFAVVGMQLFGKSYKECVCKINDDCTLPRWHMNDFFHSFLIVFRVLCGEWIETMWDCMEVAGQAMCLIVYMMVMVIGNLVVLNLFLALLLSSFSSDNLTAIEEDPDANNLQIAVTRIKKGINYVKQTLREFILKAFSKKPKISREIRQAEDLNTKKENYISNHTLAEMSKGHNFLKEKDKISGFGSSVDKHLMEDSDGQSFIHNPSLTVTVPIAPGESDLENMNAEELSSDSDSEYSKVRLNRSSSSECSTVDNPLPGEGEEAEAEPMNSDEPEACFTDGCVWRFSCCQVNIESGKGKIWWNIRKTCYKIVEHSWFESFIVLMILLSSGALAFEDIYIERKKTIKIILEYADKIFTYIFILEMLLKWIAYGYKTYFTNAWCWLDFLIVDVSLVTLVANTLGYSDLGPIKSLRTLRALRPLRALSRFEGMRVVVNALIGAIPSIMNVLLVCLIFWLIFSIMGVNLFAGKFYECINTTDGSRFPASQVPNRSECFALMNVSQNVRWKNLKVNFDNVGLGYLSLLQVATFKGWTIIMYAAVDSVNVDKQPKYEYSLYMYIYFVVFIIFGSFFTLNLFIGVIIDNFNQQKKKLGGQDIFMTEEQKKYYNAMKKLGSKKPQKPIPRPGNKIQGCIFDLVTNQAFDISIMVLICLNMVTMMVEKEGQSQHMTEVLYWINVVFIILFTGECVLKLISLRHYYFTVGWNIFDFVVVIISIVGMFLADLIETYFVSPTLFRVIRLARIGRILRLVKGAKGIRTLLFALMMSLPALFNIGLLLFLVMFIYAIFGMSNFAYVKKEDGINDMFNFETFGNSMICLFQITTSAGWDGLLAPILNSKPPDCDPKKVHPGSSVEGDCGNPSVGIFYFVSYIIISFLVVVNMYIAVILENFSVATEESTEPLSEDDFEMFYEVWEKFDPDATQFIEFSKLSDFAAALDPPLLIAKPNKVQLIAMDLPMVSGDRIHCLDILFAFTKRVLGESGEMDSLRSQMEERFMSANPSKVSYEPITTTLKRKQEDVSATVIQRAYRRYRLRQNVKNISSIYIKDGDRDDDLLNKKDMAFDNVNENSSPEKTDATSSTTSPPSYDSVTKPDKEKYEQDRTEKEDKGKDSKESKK
Sequence of hNav1.5 (Q14524 whole entry, looked up): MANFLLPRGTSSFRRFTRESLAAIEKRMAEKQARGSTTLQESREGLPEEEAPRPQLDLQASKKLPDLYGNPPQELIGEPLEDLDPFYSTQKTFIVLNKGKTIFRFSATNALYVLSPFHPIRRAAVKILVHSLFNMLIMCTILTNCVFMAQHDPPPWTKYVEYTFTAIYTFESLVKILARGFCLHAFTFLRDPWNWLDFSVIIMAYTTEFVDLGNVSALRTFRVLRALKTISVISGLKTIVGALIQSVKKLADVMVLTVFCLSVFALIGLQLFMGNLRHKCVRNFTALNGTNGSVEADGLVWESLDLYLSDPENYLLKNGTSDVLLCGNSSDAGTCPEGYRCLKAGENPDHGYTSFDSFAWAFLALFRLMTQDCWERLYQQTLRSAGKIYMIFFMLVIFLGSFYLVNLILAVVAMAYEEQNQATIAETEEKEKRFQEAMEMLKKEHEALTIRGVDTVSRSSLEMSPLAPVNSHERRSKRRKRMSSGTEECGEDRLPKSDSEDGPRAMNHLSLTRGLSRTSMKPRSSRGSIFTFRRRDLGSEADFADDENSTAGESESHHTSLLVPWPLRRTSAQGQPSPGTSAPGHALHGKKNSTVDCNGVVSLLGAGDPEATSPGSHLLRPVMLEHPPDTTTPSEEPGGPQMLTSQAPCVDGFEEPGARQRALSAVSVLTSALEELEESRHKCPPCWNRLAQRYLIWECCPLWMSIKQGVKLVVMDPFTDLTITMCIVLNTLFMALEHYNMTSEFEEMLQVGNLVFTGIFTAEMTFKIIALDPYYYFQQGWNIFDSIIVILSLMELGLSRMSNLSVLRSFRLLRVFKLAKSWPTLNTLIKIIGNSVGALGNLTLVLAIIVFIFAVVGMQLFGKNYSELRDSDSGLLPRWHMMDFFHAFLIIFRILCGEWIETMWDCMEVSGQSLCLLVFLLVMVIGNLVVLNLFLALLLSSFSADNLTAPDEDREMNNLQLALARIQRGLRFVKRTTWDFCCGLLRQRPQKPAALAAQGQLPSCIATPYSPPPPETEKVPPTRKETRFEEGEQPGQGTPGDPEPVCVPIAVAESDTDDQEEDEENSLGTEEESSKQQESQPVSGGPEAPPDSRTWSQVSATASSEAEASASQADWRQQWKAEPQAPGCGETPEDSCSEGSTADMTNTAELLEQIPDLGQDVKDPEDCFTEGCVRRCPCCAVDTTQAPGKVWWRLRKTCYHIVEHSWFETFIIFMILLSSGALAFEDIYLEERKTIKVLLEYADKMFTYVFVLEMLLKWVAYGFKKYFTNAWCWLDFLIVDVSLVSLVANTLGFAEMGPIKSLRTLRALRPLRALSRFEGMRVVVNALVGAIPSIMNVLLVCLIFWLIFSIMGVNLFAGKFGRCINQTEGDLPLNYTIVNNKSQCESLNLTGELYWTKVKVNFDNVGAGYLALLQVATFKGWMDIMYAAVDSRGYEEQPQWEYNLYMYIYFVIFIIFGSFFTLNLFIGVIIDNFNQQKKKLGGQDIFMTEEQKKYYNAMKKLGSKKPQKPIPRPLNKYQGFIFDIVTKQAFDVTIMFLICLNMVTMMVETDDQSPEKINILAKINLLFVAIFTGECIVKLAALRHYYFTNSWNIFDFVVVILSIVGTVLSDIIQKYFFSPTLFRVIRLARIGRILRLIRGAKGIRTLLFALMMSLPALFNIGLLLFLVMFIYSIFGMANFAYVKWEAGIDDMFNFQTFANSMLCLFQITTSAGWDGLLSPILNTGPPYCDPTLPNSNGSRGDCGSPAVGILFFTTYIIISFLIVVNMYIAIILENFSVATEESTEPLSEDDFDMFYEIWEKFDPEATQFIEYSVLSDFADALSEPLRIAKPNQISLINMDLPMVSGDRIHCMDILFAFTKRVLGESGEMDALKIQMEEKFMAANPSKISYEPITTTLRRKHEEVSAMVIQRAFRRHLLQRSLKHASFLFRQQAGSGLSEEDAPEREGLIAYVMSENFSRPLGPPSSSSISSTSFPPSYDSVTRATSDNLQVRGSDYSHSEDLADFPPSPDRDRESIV

SMILES | pIC50 [1, 4] | pIC50 [2] | pIC50 [3] | pIC50 [1]
CC[C@H](C)[C@@H]1NC(=O)[C@@H]2CSSC[C@@H]3NC(=O)[C@H]([C@@H](C)O)NC(=O)[C@H](CC(C)C)NC(=O)[C@H](CC(N)=O)NC(=O)[C@@H]4CCCN4C(=O)[C@H](CCCNC(=N)N)NC(=O)[C@H](CSSC[C@H](NC(=O)[C@@H](N)CC(=O)O)C(=O)N[C@@H](CC(C)C)C(=O)NCC(=O)N[C@@H](Cc4ccccc4)C(=O)N[C@@H](CCSC)C(=O)N[C@@H](CCCNC(=N)N)C(=O)N[C@@H](CCCCN)C(=O)N2)NC(=O)[C@H](CSSC[C@@H](C(=O)N[C@@H](CCCCN)C(=O)N[C@@H](Cc2ccc(O)cc2)C(=O)N[C@H](C(=O)N[C@@H](Cc2ccccc2)C(N)=O)C(C)C)NC(=O)[C@H](Cc2c[nH]c4ccccc24)NC(=O)[C@H](CCCCN)NC(=O)[C@H](Cc2c[nH]cn2)NC(=O)[C@H]([C@@H](C)O)NC(=O)[C@H](CCCNC(=N)N)NC(=O)[C@H](CO)NC3=O)NC(=O)[C@H](CCCCN)NC(=O)[C@H](CC(=O)O)NC(=O)[C@H](CC(N)=O)NC(=O)[C@H](CC(=O)O)NC(=O)[C@@H]2CCCN2C1=O [compound 329] (H-DCLGFMRKCIPDNDKCCRPNLTCSRTHKWCKYVF-NH2; disulfide 2-17, 9-23, 16-30) | 6.92 | 5.34 | 7.10 | 
CC[C@H](C)[C@@H]1NC(=O)[C@@H]2CSSC[C@@H]3NC(=O)[C@H](c4ccccc4)NC(=O)[C@H](CC(C)C)NC(=O)[C@H](CC(N)=O)NC(=O)[C@@H]4CCCN4C(=O)[C@H](CCCNC(=N)N)NC(=O)[C@H](CSSC[C@H](NC(=O)[C@@H](N)CC(=O)O)C(=O)N[C@@H](CC(C)C)C(=O)NCC(=O)N[C@@H](Cc4ccccc4)C(=O)N[C@@H](CCSC)C(=O)N[C@@H](CCCNC(=N)N)C(=O)N[C@@H](CCCCN)C(=O)N2)NC(=O)[C@H](CSSC[C@@H](C(=O)N[C@@H](CCCCN)C(=O)N[C@@H](Cc2ccc(O)cc2)C(=O)N[C@H](C(=O)N[C@@H](Cc2ccccc2)C(N)=O)C(C)C)NC(=O)[C@H](Cc2c[nH]c4ccccc24)NC(=O)[C@H](CCCCN)NC(=O)[C@H](Cc2c[nH]cn2)NC(=O)[C@H]([C@@H](C)O)NC(=O)[C@H](CCCNC(=N)N)NC(=O)[C@H](CO)NC3=O)NC(=O)[C@H](CCCCN)NC(=O)[C@H](CC(=O)O)NC(=O)[C@H](CC(N)=O)NC(=O)[C@H](CC(=O)O)NC(=O)[C@@H]2CCCN2C1=O [compound 330] (H-DCLGFMRKCIPDNDKCCRPNL[Phg]CSRTHKWCKYVF-NH2; disulfide 2-17, 9-23, 16-30) | 6.74 | 5.33 | 7.15 | 
CC[C@H](C)[C@@H]1NC(=O)[C@@H]2CSSC[C@@H]3NC(=O)[C@H](Cc4ccc(O)cc4)NC(=O)[C@H](CC(C)C)NC(=O)[C@H](CC(N)=O)NC(=O)[C@@H]4CCCN4C(=O)[C@H](CCCNC(=N)N)NC(=O)[C@H](CSSC[C@H](NC(=O)[C@@H](N)CC(=O)O)C(=O)N[C@@H](CC(C)C)C(=O)NCC(=O)N[C@@H](Cc4ccccc4)C(=O)N[C@@H](CCSC)C(=O)N[C@@H](CCCNC(=N)N)C(=O)N[C@@H](CCCCN)C(=O)N2)NC(=O)[C@H](CSSC[C@@H](C(=O)N[C@@H](CCCCN)C(=O)N[C@@H](Cc2ccc(O)cc2)C(=O)N[C@H](C(=O)N[C@@H](Cc2ccccc2)C(N)=O)C(C)C)NC(=O)[C@H](Cc2c[nH]c4ccccc24)NC(=O)[C@H](CCCCN)NC(=O)[C@H](Cc2c[nH]cn2)NC(=O)[C@H]([C@@H](C)O)NC(=O)[C@H](CCCNC(=N)N)NC(=O)[C@H](CO)NC3=O)NC(=O)[C@H](CCCCN)NC(=O)[C@H](CC(=O)O)NC(=O)[C@H](CC(N)=O)NC(=O)[C@H](CC(=O)O)NC(=O)[C@@H]2CCCN2C1=O [compound 331] (H-DCLGFMRKCIPDNDKCCRPNLYCSRTHKWCKYVF-NH2; disulfide 2-17, 9-23, 16-30) | 6.25 | 5.37 | 6.30 | 
CC[C@H](C)[C@@H]1NC(=O)[C@@H]2CSSC[C@@H]3NC(=O)[C@H](CCSC)NC(=O)[C@H](CC(C)C)NC(=O)[C@H](CC(N)=O)NC(=O)[C@@H]4CCCN4C(=O)[C@H](CCCNC(=N)N)NC(=O)[C@H](CSSC[C@H](NC(=O)[C@@H](N)CC(=O)O)C(=O)N[C@@H](CC(C)C)C(=O)NCC(=O)N[C@@H](Cc4ccccc4)C(=O)N[C@@H](CCSC)C(=O)N[C@@H](CCCNC(=N)N)C(=O)N[C@@H](CCCCN)C(=O)N2)NC(=O)[C@H](CSSC[C@@H](C(=O)N[C@@H](CCCCN)C(=O)N[C@@H](Cc2ccc(O)cc2)C(=O)N[C@H](C(=O)N[C@@H](Cc2ccccc2)C(N)=O)C(C)C)NC(=O)[C@H](Cc2c[nH]c4ccccc24)NC(=O)[C@H](CCCCN)NC(=O)[C@H](Cc2c[nH]cn2)NC(=O)[C@H]([C@@H](C)O)NC(=O)[C@H](CCCNC(=N)N)NC(=O)[C@H](CO)NC3=O)NC(=O)[C@H](CCCCN)NC(=O)[C@H](CC(=O)O)NC(=O)[C@H](CC(N)=O)NC(=O)[C@H](CC(=O)O)NC(=O)[C@@H]2CCCN2C1=O [compound 332] (H-DCLGFMRKCIPDNDKCCRPNLMCSRTHKWCKYVF-NH2; disulfide 2-17, 9-23, 16-30) | 7.05 | 5.34 | 7.10 | 
CC[C@H](C)[C@@H]1NC(=O)[C@@H]2CSSC[C@@H]3NC(=O)[C@H](Cc4ccc(C(=O)O)cc4)NC(=O)[C@H](CC(C)C)NC(=O)[C@H](CC(N)=O)NC(=O)[C@@H]4CCCN4C(=O)[C@H](CCCNC(=N)N)NC(=O)[C@H](CSSC[C@H](NC(=O)[C@@H](N)CC(=O)O)C(=O)N[C@@H](CC(C)C)C(=O)NCC(=O)N[C@@H](Cc4ccccc4)C(=O)N[C@@H](CCSC)C(=O)N[C@@H](CCCNC(=N)N)C(=O)N[C@@H](CCCCN)C(=O)N2)NC(=O)[C@H](CSSC[C@@H](C(=O)N[C@@H](CCCCN)C(=O)N[C@@H](Cc2ccc(O)cc2)C(=O)N[C@H](C(=O)N[C@@H](Cc2ccccc2)C(N)=O)C(C)C)NC(=O)[C@H](Cc2c[nH]c4ccccc24)NC(=O)[C@H](CCCCN)NC(=O)[C@H](Cc2c[nH]cn2)NC(=O)[C@H]([C@@H](C)O)NC(=O)[C@H](CCCNC(=N)N)NC(=O)[C@H](CO)NC3=O)NC(=O)[C@H](CCCCN)NC(=O)[C@H](CC(=O)O)NC(=O)[C@H](CC(N)=O)NC(=O)[C@H](CC(=O)O)NC(=O)[C@@H]2CCCN2C1=O [compound 333] (H-DCLGFMRKCIPDNDKCCRPNL[Phe(4-COOH)]CSRTHKWCKYVF-NH2; disulfide 2-17, 9-23, 16-30) | 5.24 | 5.12 | 5.35 | 
CC[C@H](C)[C@@H]1NC(=O)[C@@H]2CSSC[C@@H]3NC(=O)[C@H](Cc4ccccn4)NC(=O)[C@H](CC(C)C)NC(=O)[C@H](CC(N)=O)NC(=O)[C@@H]4CCCN4C(=O)[C@H](CCCNC(=N)N)NC(=O)[C@H](CSSC[C@H](NC(=O)[C@@H](N)CC(=O)O)C(=O)N[C@@H](CC(C)C)C(=O)NCC(=O)N[C@@H](Cc4ccccc4)C(=O)N[C@@H](CCSC)C(=O)N[C@@H](CCCNC(=N)N)C(=O)N[C@@H](CCCCN)C(=O)N2)NC(=O)[C@H](CSSC[C@@H](C(=O)N[C@@H](CCCCN)C(=O)N[C@@H](Cc2ccc(O)cc2)C(=O)N[C@H](C(=O)N[C@@H](Cc2ccccc2)C(N)=O)C(C)C)NC(=O)[C@H](Cc2c[nH]c4ccccc24)NC(=O)[C@H](CCCCN)NC(=O)[C@H](Cc2c[nH]cn2)NC(=O)[C@H]([C@@H](C)O)NC(=O)[C@H](CCCNC(=N)N)NC(=O)[C@H](CO)NC3=O)NC(=O)[C@H](CCCCN)NC(=O)[C@H](CC(=O)O)NC(=O)[C@H](CC(N)=O)NC(=O)[C@H](CC(=O)O)NC(=O)[C@@H]2CCCN2C1=O [compound 334] (H-DCLGFMRKCIPDNDKCCRPNL[2Pal]CSRTHKWCKYVF-NH2; disulfide 2-17, 9-23, 16-30) | 6.48 | 4.96 | 6.85 | 
CC[C@H](C)[C@@H]1NC(=O)[C@@H]2CSSC[C@@H]3NC(=O)[C@H](C(C)C)NC(=O)[C@H](CC(C)C)NC(=O)[C@H](CC(N)=O)NC(=O)[C@@H]4CCCN4C(=O)[C@H](CCCNC(=N)N)NC(=O)[C@H](CSSC[C@H](NC(=O)[C@@H](N)CC(=O)O)C(=O)N[C@@H](CC(C)C)C(=O)NCC(=O)N[C@@H](Cc4ccccc4)C(=O)N[C@@H](CCSC)C(=O)N[C@@H](CCCNC(=N)N)C(=O)N[C@@H](CCCCN)C(=O)N2)NC(=O)[C@H](CSSC[C@@H](C(=O)N[C@@H](CCCCN)C(=O)N[C@@H](Cc2ccc(O)cc2)C(=O)N[C@H](C(=O)N[C@@H](Cc2ccccc2)C(N)=O)C(C)C)NC(=O)[C@H](Cc2c[nH]c4ccccc24)NC(=O)[C@H](CCCCN)NC(=O)[C@H](Cc2c[nH]cn2)NC(=O)[C@H]([C@@H](C)O)NC(=O)[C@H](CCCCN(C)C)NC(=O)[C@H](CO)NC3=O)NC(=O)[C@H](CCCCN)NC(=O)[C@H](CC(=O)O)NC(=O)[C@H](CC(N)=O)NC(=O)[C@H](CC(=O)O)NC(=O)[C@@H]2CCCN2C1=O [compound 335] (H-DCLGFMRKCIPDNDKCCRPNLVCS[Lys(Me2)]THKWCKYVF-NH2; disulfide 2-17, 9-23, 16-30) | 6.51 | 5.10 | 6.96 | 
CC[C@H](C)[C@@H]1NC(=O)[C@@H]2CSSC[C@@H]3NC(=O)[C@H](C(C)C)NC(=O)[C@H](CC(C)C)NC(=O)[C@H](CC(N)=O)NC(=O)[C@@H]4CCCN4C(=O)[C@H](CCCNC(=N)N)NC(=O)[C@H](CSSC[C@H](NC(=O)[C@@H](N)CC(=O)O)C(=O)N[C@@H](CC(C)C)C(=O)NCC(=O)N[C@@H](Cc4ccccc4)C(=O)N[C@@H](CCSC)C(=O)N[C@@H](CCCNC(=N)N)C(=O)N[C@@H](CCCCN)C(=O)N2)NC(=O)[C@H](CSSC[C@@H](C(=O)N[C@@H](CCCCN)C(=O)N[C@@H](Cc2ccc(O)cc2)C(=O)N[C@H](C(=O)N[C@@H](Cc2ccccc2)C(N)=O)C(C)C)NC(=O)[C@H](Cc2c[nH]c4ccccc24)NC(=O)[C@H](CCCCN)NC(=O)[C@H](Cc2c[nH]cn2)NC(=O)[C@H]([C@@H](C)O)NC(=O)[C@H](CCCNC(=NC)NC)NC(=O)[C@H](CO)NC3=O)NC(=O)[C@H](CCCCN)NC(=O)[C@H](CC(=O)O)NC(=O)[C@H](CC(N)=O)NC(=O)[C@H](CC(=O)O)NC(=O)[C@@H]2CCCN2C1=O [compound 336] |  | 5.04 | 6.96 | 6.85
